# Assay results as given in patent US20230293530A1, “AGENTS FOR SENSITIZING SOLID TUMORS TO TREATMENT” (Yeda Research and Development Co. Ltd., priority 2020, published 2023).
# Assays:
# [1] = test system: 4T1 breast cancer cells; assay: Nucleotide levels by LC-MS in 4T1 cells with or without mizoribine (or L-Name); assay type: cell-based, murine; conditions: 300 µM mizoribine, 24 h
# Protocol: B) The purine/pyrimidine ratio is increased upon glucose deprivation in murine breast cancer cells. 4T1 cells were grown in the absence of glucose for 24h (baseline) and 48h and quantified by liquid chromatography-mass spectrometry (LC-MS). Nucleotide levels were measured in µg/ml and corrected for protein concentration. Purine/pyrimidine ratio was calculated by dividing (AMP+GMP) by (UMP+CMP) relative concentrations. C) ASS1 inhibition decreases the purine/pyrimidine ration under glucose deprivation. 4T1 cells were grown in the presence or absence of glucose for 48 h and analysed as in 1B. […] Cells were grown and treated as in 5B. […] 4T1 cells were grown either with or without 300 µM mizoribine for 24 h. Nucleotide levels were measured by LC-MS. […] Each experiment was conducted with biological and technical replicates and repeated at least three times. G) A549 cells were grown for 48 hr in control medium or supplemented with 1.2 µM Methotrexate (Holland-Moran). Nucleotide levels were measured as described below by LC-MS. Purine/pyrimidine ratio was calculated by dividing (AMP+GMP+ATP+GTP) concentration by (UMP+CMP+TMP+UTP+CTP+TTP) concentration before and after methotrexate. All error bars represent SER. *P<0.05, **P<0.01. Each experiment was conducted with biological and technical replicates and repeated at least three times.
# (§1) A) Purine/pyrimidine ratio is increased upon nutrient deprivation in […] colon cancer cells. MC38 cells were grown in either regular medium or in medium without glucose for 24 h. Nucleotide levels were measured by LC-MS. Purine/pyrimidine ratio was calculated by dividing (AMP+GMP) AUC by (UMP+CMP) AUC. B) 4T1 cells with and without shASS1 were grown in glucose free medium either supplemented or not with 10 mM L-Name for 48 hrs. Nucleotide levels were measured by LC-MS. Purine/pyrimidine ratio was calculated by dividing the sum levels of (AMP+GMP) by the sum levels of (UMP+CMP+TMP). […] MC38 cells were grown either with or without 300 µM mizoribine for 24 h. Nucleotide levels were measured by LC-MS. […] 4T1 (left panel) and MC38 cells (right panel) were grown for 24 h with or without 300 µM mizoribine. Cell viability was measured by crystal violet staining. Each experiment was conducted with biological and technical replicates and repeated at least three times. All error bars represent SER. * P<0.05, ** denotes P<0.01, ***P<0.001.
# LC-MS analysis: The LC-MS/MS instrument consisting of an Acquity I-class UPLC system (Waters) and Xevo TQ-S triple quadrupole mass spectrometer (Waters), equipped with an electrospray ion source, and operated in positive ion mode was used for analysis of nucleoside monophosphates. MassLynx and TargetLynx software (version 4.1, Waters) were applied for the acquisition and analysis of data. Chromatographic separation was done on a 100 mm × 2.1 mm internal diameter, 1.8-µm UPLC HSS T3 column equipped with 50 mm × 2.1 mm internal diameter, 1.8-µm UPLC HSS T3 pre-column (both Waters Acquity) with mobile phases A (10 mM ammonium acetate and 5 mM ammonium hydrocarbonate buffer, pH 7.65 adjusted with 10% acetic acid) and B (acetonitrile) at a flow rate of 0.3 mL min-1 and column temperature 25° C. A gradient was used as follows: for 0-3 min the column was held at 0.2% B, then 3-3.5 min a linear increase to 100% B, 3.5-4.0 min held at 100% B, 4.0-4.5 min back to 0.2% B and equilibration at 0.2% B for 2.5 min. […] Nucleotide concentration was calculated using a standard curve of the relevant nucleotide concentration in each sample. […]
# [2] = test system: MC38 cells; assay: Cell viability by crystal violet staining, MC38; assay type: cell-based, mouse; conditions: 300 µM mizoribine, 24 h
# Protocol: as §1
# [3] = test system: 4T1 breast cancer cells; assay: Syngeneic mouse breast cancer model, 4T1 cells pre-treated in vitro with mizoribine; assay type: in vivo, BALB/c female mice
# Excerpt: C) ASS1 mRNA expression levels and NDNO scores are associated with non-response to anti-PD1 therapy in non-small cell lung cancer (NSCLC) (7 responders and 14 nonresponders). D) Proteomic-based NDNO scores associate with lower hydrophobicity of peptide repertoire (Wilcoxon ranksum P<0.05) in a (CPTAC3) lung adenocarcinoma cohort. NDNO scores were used to determine the top tertile (red; n=36) and bottom tertile (blue; n=36); Proteomic NDNO scores denote the ratio of NNDO scores of the tumor vs the matched normal sample (Methods). Hydrophobicity scores were determined by R library Peptides using the metric from Janin et al^2, where the hydrophobicity of each sample’s peptide repertoire denotes the mean hydrophobicity of all its peptides (Methods). E) 4T1 breast cancer cells were treated with 300 µM mizoribine for 24 hours and analysed by western for LMP-7 immunoproteasome (Left panel). Quantification of the western is shown on the right panel. […] Tumor size was calliper-measured on the designated days (upper panel) and at sacrifice on day 14 (lower panel, p = 0.0476 using student’s t-test). […] Human IFNγ was measured using ELISA in wells containing cultured CD8+T-cells and PDX explants from two patients (Pat#1, LEP 19 and Pat#2, LEP 20) with metastatic NSCLC on responsive to anti-PD1. […]
# [4] = corrected for protein concentration
compound,measurement,setting,value
"NC(=O)c1ncn([C@@H]2O[C@H](CO)[C@@H](O)[C@H]2O)c1O [Mizoribine, mizoribine]",purine/pyrimidine ratio (AMP+GMP)/(UMP+CMP),[1],decreased purine/pyrimidine ratio
same,"AMP level, Mizoribine treatment",[1]; [4],483.2 µg/ml/ pt
same,"CMP level, Mizoribine treatment",[1]; [4],7.3 µg/ml/ pt
same,"GMP level, Mizoribine treatment",[1]; [4],28.46 µg/ml/ pt
same,"UMP level, Mizoribine treatment",[1]; [4],38.39 µg/ml/ pt
same,"cancer cell proliferation (cell viability, crystal violet)",[2],restricts ASS1-overexpressing cancer cell proliferation
same,tumor growth,"[3]; 4T1 cells treated with mizoribine in vitro before injection into mammary pads, mizoribine alone",restricted tumor growth
same,tumor growth response in combination with anti-PD1,"[3]; 4T1 cells treated with mizoribine in vitro before injection, anti-PD1 intraperitoneal, mice unresponsive to anti-PD1",more significant response
